Our source for the IC50 values is patent US8969366B2, “Substituted pyrimidinylpyrrolopyridinone derivatives, process for their preparation and their use as kinase inhibitors” (Nerviano Medical Sciences S.R.L., priority 2009, dated 2015).

Holding throughout (assay type): cell-based
Assay [1] deals with human melanoma cells Mewo (with wild-type B-Raf). Kind of assay: In vitro cell proliferation assay, Mewo. The note with it: 72 hours treatment, cell number by ATP monitoring system. As to the method: (§1) In Vitro Cell Proliferation Assay Exponentially growing human melanoma cells A375 (with a mutated B-RAF) and human melanoma cells Mewo (with wild-type B-Raf) were seeded and incubated at 37° C. in a humidified 5% CO2 atmosphere. After 24 hours, scalar doses of the compound were added to the medium and cells oncubated for 72 hours. At the end of treatment, cells were washed and counted. Cell number was determined by a cellular adenosine triphosphate monitoring system. Cell proliferation was compared to control cells and the concentration inhibiting cell growth by 50% was calculated. p-MAPK (T202/Y204) ArrayScan Assay

The test system of assay [2] is human melanoma cells A375 (with a mutated B-RAF). Description: In vitro cell proliferation assay, A375. Particulars: A-375, 72 hours treatment, cell number by ATP monitoring system. As to the method: as §1
The subject of assay [3] is p-MAPK (T202/Y204) in A375 human melanoma cells, having a mutated B-RAF. Description: p-MAPK (T202/Y204) ArrayScan assay. Particulars: A-375, A375 cells treated 1.5 or 2 hours, cytoplasmatic p-MAPK fluorescence intensity, read-out: Array Scan A375 IC50. As to the method:
A375 human melanoma cells, having a mutated B-RAF, are seeded in 384-well poly-lysine coated plates (Matrix) at a density of 1000 cells/well with appropriate medium supplemented with 10% FCS and incubated for 16-24 hours. Cells are treated for 1.5 or 2 hours with increasing doses of compounds (starting dose 10 μM, dilution factor 2.5). At the end of the treatment cells are fixed with p-formaldehyde 3.7% for 15-30 min, then washed twice with D-PBS (80 µl/well) and permeabilized with D-PBS containing 0.1% Triton X-100 and 1% BSA (Sigma-Aldrich) for 15 minutes at room temperature (staining solution). Anti-phospho-MAPK (T202/Y204) monoclonal antibody E10 (Cell Signaling, cat. #9106) diluted 1:100 is added in staining solution and incubated for 1 hour at 37° C. After removal of the primary antibody solution, the anti-mouse Cy™2-conjugated (Green) secondary antibody (Amersham) diluted 1:500 in staining solution containing 2 μg/ml DAPI is added. The plate is incubated for 1 hour at 37° C., washed twice and then red with Cellomics' ArrayScan VTI (4 fields/well, CytoNucTrans algorithm).
The parameter “MEAN_RingAvgIntenCh2”, which measures the mean cytoplasmatic fluorescence intensity associated to p-MAPK staining, is reported as the final result.

Counter-ions that a name gives are not always drawn.

Consider `Cn1c2c(c(-c3cccc(NC(=O)Nc4ccc(C(F)(F)F)cc4)c3)c1-c1ccnc(N)n1)C(=O)NCC2` [compound 1, 1-{3-[2-(2-Amino-pyrimidin-4-yl)-1-methyl-4-oxo-4,5,6,7-tetrahydro-1H-pyrrolo-[3,2-c]pyridin-3-yl]-phenyl}-3-(4-trifluoromethyl-phenyl)-urea], for which the IC50 in assay [1] is greater than 10000 nM; in assay [2], 8220 nM; in assay [3], 5600 nM.
In the same order, the values of `Cn1c(-c2ccnc(C#Cc3cccc(Cl)c3)n2)cc2c1CCNC2=O` [compound 8, 2-[2-(3-Chloro-phenylethynyl)-pyrimidin-4-yl]-1-methyl-1,5,6,7-tetrahydro-pyrrolo[3,2-c]pyridin-4-one] are 820 nM, 210 nM and 930 nM.
The corresponding values for `Cc1csc(C(=O)Nc2nccc(-c3cc4c(n3C)CCNC4=O)n2)c1` [compound 14, 4-Methyl-thiophene-2-carboxylic acid [4-(1-methyl-4-oxo-4,5,6,7-tetrahydro-1H-pyrrolo[3,2-c]pyridin-2-yl)-pyrimidin-2-yl]-amide] are 2640 nM, 770 nM and 1450 nM.
In the same order, the values of `Cn1c(-c2ccnc(NC(=O)c3cccc(Cl)c3)n2)cc2c1CCNC2=O` [compound 10, 3-Chloro-N-[4-(1-methyl-4-oxo-4,5,6,7-tetrahydro-1H-pyrrolo[3,2-c]pyridin-2-yl)-pyrimidin-2-yl]-benzamide] are 1980 nM, 450 nM and 1600 nM.
`Cn1c(-c2ccnc(NC(=O)c3cc(Br)cs3)n2)cc2c1CCNC2=O` [compound 4, 4-Bromo-thiophene-2-carboxylic acid[4-(1-methyl-4-oxo-4,5,6,7-tetrahydro-1H-pyrrolo[3,2-c]pyridin-2-yl)-pyrimidin-2-yl]-amide]: the IC50 in assay [1] came to 2450 nM; in assay [2], 490 nM; in assay [3] it was 460 nM.
The corresponding values for `Cn1c(-c2ccnc(NC(=O)c3ccsc3)n2)cc2c1CCNC2=O` [compound 12, Thiophene-3-carboxylic acid [4-(1-methyl-4-oxo-4,5,6,7-tetrahydro-1H-pyrrolo-[3,2-c]pyridin-2-yl)-pyrimidin-2-yl]-amide] are 6410 nM, 2500 nM and 2380 nM.
In the same order, the values of `Cn1c(-c2ccnc(NCc3cc(Br)cs3)n2)cc2c1CCNC2=O` [compound 7, 2-{2-[(4-Bromo-thiophen-2-ylmethyl)-amino]-pyrimidin-4-yl}-1-methyl-1,5,6,7-tetrahydro-pyrrolo[3,2-c]pyridin-4-one hydrochloride] are 9760 nM, 2910 nM and 2140 nM.
Turning to `Cn1c(-c2ccnc(NCc3cccc(Cl)c3)n2)cc2c1CCNC2=O` [compound 6, 2-[2-(3-Chloro-benzylamino)-pyrimidin-4-yl]-1-methyl-1,5,6,7-tetrahydro-pyrrolo[3,2-c]pyridin-4-one hydrochloride], the results for the IC50 in assay [1], in assay [2] and in assay [3] were 5790 nM, 1760 nM and 2110 nM, respectively.
`Cn1c(-c2ccnc(NC(=O)c3cccs3)n2)cc2c1CCNC2=O` [compound 11, Thiophene-2-carboxylic acid [4-(1-methyl-4-oxo-4,5,6,7-tetrahydro-1H-pyrrolo[3,2-c]pyridin-2-yl)-pyrimidin-2-yl]-amide]: the IC50 in assay [1] turned out to be 2420 nM; in assay [2] it was 1700 nM; in assay [3] it was 2910 nM.
In the same order, the values of `Cn1c(-c2nc(N)ncc2C#Cc2cccc(O)c2)cc2c1CCNC2=O` [compound 2, 2-[2-Amino-5-(3-hydroxy-phenylethynyl)-pyrimidin-4-yl]-1-methyl-1,5,6,7-tetrahydro-pyrrolo[3,2-c]pyridin-4-one] are 7910 nM, 6090 nM and greater than 10000 nM.
Consider `Nc1ncc(C#Cc2cccc(O)c2)c(-c2cc3c(n2CCF)CCNC3=O)n1` [compound 3, 2-[2-Amino-5-(3-hydroxy-phenylethynyl)-pyrimidin-4-yl]-1-(2-fluoro-ethyl)-1,5,6,7-tetrahydro-pyrrolo[3,2-c]pyridin-4-one], for which the IC50 in assay [1] worked out at 4750 nM; in assay [2], 6460 nM; in assay [3], 710 nM.
The corresponding values for `Cn1c(-c2ccnc(/C=C/c3cccc(Cl)c3)n2)cc2c1CCNC2=O` [compound 9, 2-{2-[(E)-2-(3-Chloro-phenyl)-vinyl]-pyrimidin-4-yl}-1-methyl-1,5,6,7-tetrahydro-pyrrolo[3,2-c]pyridin-4-one] are 1220 nM, 370 nM and 400 nM.
